Measurements published in patent US11707468B2, “Methods of treating pancreatic cancer” (UNIVERSITY OF MARYLAND, BALTIMORE, priority 2014, dated 2023).

Legend:
Panc-1 cells = experiment: Wound-healing (scratch) migration assay; assay type: cell-based, human; settings: Panc-1, 5 μM, 12 hours
Method: FIG. 12: Panc-1 and S2-013 cells plated in 24-well plate in a monolayer and scratch wound made with a 200 μl pipette tip and treated with indicated compounds at 5 μM for 12 hours.
The present Example investigates whether ARDAs inhibit the migratory and invasive potential of PDAC cells. Decreased invasive potential of PDAC cells was shown through wound-healing and matrigel-coated Boyden chambers assays. Cells grown to a monolayer were used in migration assay after a scratch was made and incubated for 12 hours. […] In contrast, CGP and Gem were not effective. As expected these compounds also exerted strong anti-invasive efficacy against Capan-1 cells. The tested concentrations at time (12 h) of assay, all cells in each treatment group were ≥90% viable.

[1] = test system: Gem-naïve and Gem-resistant PDAC cells; experiment: Colony formation assay; assay type: cell-based, human
Method: (§1) S2-013 (FIG. 10A), MiaPaCa-2 (FIG. 10B) and MiaPaCa-GTR (FIG. 10C) show cells seeded at 1000 cells/well and treated with compounds (μM) for 14 days. Media was replaced every 72 hours. Cells were stained with 0.05% crystal violet. Conditioned media from MiaPaCa-2 cells after being treated with indicated compounds was separated on a zymogram gel to analyze the proteolytic activity of MMP9 after treatment (FIG. 10D).
FIG. 11: Inhibition of colony formation in S2-013 cells.
S2-013, MiaPaCa-2 and MiaPaCa-GTR were seeded at 1000 cells/well and treated with compounds (μM) for 14 days. Media was replaced every 72 h. Cells were stained with 0.05% crystal violet (FIG. 10A-C).

MiaPaCa-2 = experiment: MTT cell viability / anti-proliferative assay; assay type: cell-based, human; settings: for anti-proliferative potency compared with gemcitabine: MiaPaCa-2 cells, MTT assay after a 7-day agent treatment
Method: FIG. 6: Inhibition of PDAC cell proliferation: MTT assay after a 7-day agent treatment.
(§2) FIG. 7: Effect of Galeterone, analogs and Gemcitabine on PDAC cells. MTT cell viability assays were conducted on Gem-naïve and Gem-resistant cells.
The present Example presents the in vitro anti-proliferative activities of compounds in three human PDAC cell lines, including, Capan-1, MiaPaCa-2 and S2-013 because of their relative resistant nature (30, 31). The cell lines used were authenticated by short tandem repeat.
(§3) The present Example investigates the potential efficacy of galeterone and three lead ARDAs in inhibiting cell viability of both gemcitabine naïve (Gem-naïve) and gemcitabine/erlotinib resistant human pancreatic cancer cells in vitro. […] Galeterone and its analogs show significant anti-proliferative active against both gemcitabine naïve and gemcitabine resistant PDAC cells.

MiaPaCa-GR [2] = experiment: Apoptosis, flow cytometry Annexin V and PI staining; assay type: cell-based, human; settings: MiaPaCa-GR cells, 24 hours
Method: (§4) FIG. 18: Apoptotic induction of Gal and Analogs and Gem-resistant PDAC cells. (FIG. 18A) Galeterone and analogs induce apoptosis in S2-013 cells analyzed by acridine orange ethidium bromide staining. Cells were treated with 2.5 μM. (FIG. 18B) Galeterone and analogs were compared to gemcitabine in inducing apoptosis analyzed by flow cytometry in MiaPaCa-GR cells.
(§5) Cells treated with indicated doses for 24 hours were analyzed by acridine orange ethidium bromide assay and also by FACS analysis using Annexin V and PI staining following manufacturer's protocol. […] Galeterone and analogs induce apoptosis in S2-013 cells analyzed by acridine orange ethidium bromide staining ([…]). Galeterone and analogs were compared to gemcitabine in inducing both early and late apoptosis analyzed by flow cytometry (FIG. 18B).

S2-013 [3] = experiment: Apoptosis, acridine orange ethidium bromide staining; assay type: cell-based, human; settings: S2-013 metastatic cell line, 2.5 μM, 24 hours
Method: as §4, §5

MMP9 = experiment: Zymography of conditioned media from MiaPaCa-2 cells; assay type: cell-based, human; settings: conditioned media of MiaPaCa-2 cells treated 3 days
Method: as §1
Zymography assays were performed by seeding cells in 10 cm plates in phenol-red free media with no fetal bovine serum (FBS) and treated for 3 days. Media from cells were concentrated using amicon ultra filtration columns and normalized protein run on a 10% gelatin gels. Conditioned media from MiaPaCa-2 cells after being treated with indicated compounds was separated on a zymogram gel to analyze the proteolytic activity of MMP9 after treatment (FIG. 10D). […] The ARDAs caused significant depletion of matrix metalloproteinases (MMPs).

MiaPaCa-GR [4] = experiment: MTT cell viability assay; assay type: cell-based; settings: Homo sapiens, MiaPaCa-GR (gemcitabine resistant), single agent
Method: as §2
(§6) Examples below were preformed using a panel of PDAC cells from primary tumors (MiaPaca-2, Panc-1, Capan-1 and HS766T), metastatic lesions (S2-013 and S2VP10) and drug-resistant MiaPaCa-GR (gemcitabine resistant-200 nM) and MiaPaCa-GTR (erlotinib-2 μM/gemcitabine-200 nM) cell lines. The activities of ARDAs and Gemcitabine (Gem) can be evaluated using complementary assays and molecular determinants can also be identified in a panel of human PDAC cells. The mechanism(s) of action of ARDAs alone and in combination with Gem with the primary goal to identify the key mediators for their activities in PDAC cells are disclosed here. […] Initially four cell line (2 Gem-naïve and the two Gem-resistant lines) will be used. Key findings derived from these cell lines can be validated in additional cell lines if necessary. How these agents modulate Mnk1/2-peIF4E and NFκ-B can also be focused on.
(§7) The present Example investigates the potential efficacy of galeterone and three lead ARDAs in inhibiting cell viability of both gemcitabine naïve (Gem-naïve) and gemcitabine/erlotinib resistant human pancreatic cancer cells in vitro. […]

MiaPaCa-GTR = experiment: MTT cell viability assay; assay type: cell-based; settings: Homo sapiens, MiaPaCa-GTR (gemcitabine/erlotinib resistant), single agent
Method: as §2, §6, §7

S2-013 [5] = experiment: MTT cell viability assay; assay type: cell-based; settings: Homo sapiens, S2-013, single agent
Method: as §2, §3

[6] = compared to VN/124-1, reference (1); cited from earlier work
androgen receptor = biological target: T1, androgen receptor (Homo sapiens, UniProt P10275); settings: compared to VN/124-1, reference (1); cited from earlier work
T1 sequence (P10275 1-920): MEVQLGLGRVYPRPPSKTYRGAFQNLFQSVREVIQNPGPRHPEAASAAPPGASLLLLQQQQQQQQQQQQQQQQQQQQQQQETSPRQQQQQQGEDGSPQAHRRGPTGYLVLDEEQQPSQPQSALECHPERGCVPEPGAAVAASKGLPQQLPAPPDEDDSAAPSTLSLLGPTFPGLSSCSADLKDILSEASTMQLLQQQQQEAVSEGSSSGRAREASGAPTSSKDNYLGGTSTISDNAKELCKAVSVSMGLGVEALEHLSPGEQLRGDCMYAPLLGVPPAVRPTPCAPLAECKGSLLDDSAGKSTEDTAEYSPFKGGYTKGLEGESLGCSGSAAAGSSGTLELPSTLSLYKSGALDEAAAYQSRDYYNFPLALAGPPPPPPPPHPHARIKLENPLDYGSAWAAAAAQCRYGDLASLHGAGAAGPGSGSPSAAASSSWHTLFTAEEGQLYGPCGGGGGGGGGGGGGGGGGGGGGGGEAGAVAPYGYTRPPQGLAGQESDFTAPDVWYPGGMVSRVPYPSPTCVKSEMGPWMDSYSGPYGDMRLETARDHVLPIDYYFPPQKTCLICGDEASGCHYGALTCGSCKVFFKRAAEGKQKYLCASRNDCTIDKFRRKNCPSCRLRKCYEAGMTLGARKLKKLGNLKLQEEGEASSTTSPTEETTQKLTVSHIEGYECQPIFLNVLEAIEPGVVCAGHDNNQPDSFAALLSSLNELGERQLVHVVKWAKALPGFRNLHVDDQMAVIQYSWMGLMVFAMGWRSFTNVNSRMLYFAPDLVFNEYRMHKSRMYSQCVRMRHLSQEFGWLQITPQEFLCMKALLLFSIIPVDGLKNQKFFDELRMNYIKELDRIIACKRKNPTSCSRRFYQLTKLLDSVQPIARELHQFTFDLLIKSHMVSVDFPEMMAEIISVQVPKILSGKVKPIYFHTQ

[7] = test system: patients with advanced-stage pancreatic cancer; settings: in combination with gemcitabine, Moore et al. 2007; cited from earlier work
[8] = 1000 cells/well, treated 14 days, alone or in combination with gemcitabine

In the case of `Nc1ncnc2n[nH]c(Nc3ccc(F)cc3)c12` [CGP, reference compound], the cell migration (Panc-1 cells) was “not effective” and the colony formation ([1]; CGP at 2.5 μM) was “did not significantly affect colony formation”.
With `C[C@]12CC[C@H](O)CC1=CC[C@@H]1[C@@H]2CC[C@]2(C)C(n3cnc4ccccc43)=CC[C@@H]12` [Galeterone, galeterone] the GI50 (MiaPaCa-2; Homo sapiens, MIA PaCa-2, MiaPaCa-2, single agent, MTT) was 1.23 µM, the “anti-proliferative potency compared with gemcitabine” value (MiaPaCa-2) was “almost as potent as gemcitabine” and the cell migration (Panc-1 cells) was “significant inhibition”. The induction of apoptosis (MiaPaCa-GR [2]) was “significantly induce apoptosis”, the induction of apoptosis (S2-013 [3]) was “significantly induce apoptosis” and the MMP9 secretion (MMP9; alone) was “decreases MMP9 secretion”. For the same compound, the MMP9 secretion (MMP9; in combination with gemcitabine) was “decreases MMP9 secretion”, the GI50 (MiaPaCa-GR [4]) was 7.08 µM and the GI50 (MiaPaCa-GTR) was 2.19 µM. For the same compound, the colony formation [1, 8] was “significantly inhibited” and the GI50 (S2-013 [5]) was 0.49 µM.
With `Nc1ccn([C@@H]2O[C@H](CO)[C@@H](O)C2(F)F)c(=O)n1` [Gemcitabine, reference compound] the cell migration (Panc-1 cells) was “not effective” and the colony formation [1, 8] was “inhibit colony formation”.
With `C[C@]12CC[C@H](OCc3ccncc3)CC1=CCC1C2CC[C@]2(C)C(n3cnc4ccccc43)=CCC12` (stereo partly shown) [VNPP414] the “anti-proliferative potency compared with gemcitabine” value (MiaPaCa-2) was “almost as potent as gemcitabine” and the cell migration (Panc-1 cells) was “significant inhibition”.
For `C[C@]12CC[C@H](n3ccnc3)CC1=CC[C@@H]1[C@@H]2CC[C@]2(C)C(n3cnc4ccccc43)=CC[C@@H]12` [VNPP433-3β], the “anti-proliferative potency compared with gemcitabine” value (MiaPaCa-2) was “almost as potent as gemcitabine”.
In the case of `C[C@]12CC[C@H](OC(=O)n3ccnc3)CC1=CCC1C2CC[C@]2(C)C(n3cnc4ccccc43)=CCC12` (stereo partly shown) [VNPT-55], the “anti-proliferative potency compared with gemcitabine” value (MiaPaCa-2) is listed as “almost as potent as gemcitabine”, the “anti-proliferative (AP) potency relative to VN/124-1” value [6] is listed as 4 fold and the “ARD potency relative to VN/124-1” value (androgen receptor) is listed as 8 fold.
In the case of `C#Cc1cccc(Nc2ncnc3cc(OCCOC)c(OCCOC)cc23)c1` [erlotinib], the “median overall survival benefit” value [7] is given as “less than four weeks”.
